Measured values reported in ChEMBL document CHEMBL1201862, “PubChem BioAssay data set” (2004).
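Test compounds were applied to cells in 96-well plates for 48 hours at 5 doses. GI50 = concentration required for 50% inhibition of growth.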 Calls of active or inactive are those of the source. Cut-off read from the data, not from the text of the source: active = GI50 up to about 1.1 µM and inactive = higher.

Tests used:
Experiment in all cases: DTP human tumour cell line panel, 48 h
NCI-H522 = test system: NCI-H522
A549 = test system: A549
KM12 = test system: KM12
MDA-MB-435 = test system: MDA-MB-435
SF-539 = test system: SF-539
786-0 = test system: 786-0
ACHN = test system: ACHN
HT-29 = test system: HT-29
OVCAR-4 = test system: OVCAR-4
M14 = test system: M14
XF498 = test system: XF498
HL-60 = test system: HL-60
Malme-3M = test system: Malme-3M
SF-268 = test system: SF-268
DMS-273 = test system: DMS-273
DLD-1 = test system: DLD-1
OVCAR-8 = test system: OVCAR-8
T47D = test system: T47D
RPMI-8226 = test system: RPMI-8226
SN12C = test system: SN12C
BT-549 = test system: BT-549
CCRF-CEM = test system: CCRF-CEM
UO-31 = test system: UO-31
CAKI-1 = test system: CAKI-1
MOLT-4 = test system: MOLT-4
SNB-19 = test system: SNB-19
LXFL 529 = test system: LXFL 529
NCI-H460 = test system: NCI-H460
HCC 2998 = test system: HCC 2998
M19-MEL = test system: M19-MEL
HOP-18 = test system: HOP-18
HCT-15 = test system: HCT-15
SNB-78 = test system: SNB-78
SK-MEL-2 = test system: SK-MEL-2
SW-620 = test system: SW-620
SR = test system: SR
UACC-62 = test system: UACC-62
MCF7 = test system: MCF7
SF-295 = test system: SF-295
A498 = test system: A498
TK-10 = test system: TK-10
UACC-257 = test system: UACC-257
IGROV-1 = test system: IGROV-1
PC-3 = test system: PC-3
OVCAR-3 = test system: OVCAR-3
LOX IMVI = test system: LOX IMVI
K562 = test system: K562
SK-OV-3 = test system: SK-OV-3
EKVX = test system: EKVX
NCI-H23 = test system: NCI-H23
HOP-92 = test system: HOP-92
OVCAR-5 = test system: OVCAR-5
SNB-75 = test system: SNB-75
SK-MEL-28 = test system: SK-MEL-28
DU-145 = test system: DU-145
SK-MEL-5 = test system: SK-MEL-5
U-251 = test system: U-251
KM-20L2 = test system: KM-20L2
RXF 393 = test system: RXF 393
DMS-114 = test system: DMS-114
MDA-N = test system: MDA-N
HOP-62 = test system: HOP-62
COLO 205 = test system: COLO 205
HCT-116 = test system: HCT-116
NCI-H226 = test system: NCI-H226

Measured: GI50

NC1=C(Cl)C(=O)c2ccccc2C1=O
inactive: NCI-H522 5.22 µM | A549 2.93 µM | KM12 8.05 µM | SF-539 8.24 µM | 786-0 7.4 µM | ACHN 9.27 µM | HT-29 4.99 µM | OVCAR-4 7.08 µM | XF498 11.2 µM | HL-60 3.55 µM | Malme-3M 1.38 µM | SF-268 11.2 µM | DMS-273 5.82 µM | DLD-1 8.75 µM | OVCAR-8 8.34 µM | T47D 2.87 µM | RPMI-8226 18.4 µM | SN12C 5.04 µM | BT-549 2.47 µM | CCRF-CEM 5.15 µM | UO-31 13.7 µM | CAKI-1 17.3 µM | MOLT-4 5.7 µM | SNB-19 9.46 µM | LXFL 529 12.6 µM | NCI-H460 3.43 µM | HCC 2998 10.6 µM | HOP-18 9.66 µM | SNB-78 25.4 µM | SK-MEL-2 7.08 µM | SW-620 5.42 µM | SR 4.32 µM | MCF7 2.06 µM | SF-295 6.87 µM | A498 19.9 µM | TK-10 22.2 µM | UACC-257 2.57 µM | IGROV-1 9.82 µM | PC-3 1.79 µM | OVCAR-3 2.45 µM | LOX IMVI 2.28 µM | K562 8.11 µM | SK-OV-3 2.52 µM | EKVX 14.7 µM | NCI-H23 1.77 µM | HOP-92 14.6 µM | OVCAR-5 10.3 µM | SNB-75 11.3 µM | SK-MEL-28 4.67 µM | DU-145 1.87 µM | U-251 4.34 µM | KM-20L2 9.12 µM | RXF 393 7.67 µM | DMS-114 3.89 µM | MDA-N 1.63 µM | HOP-62 11.4 µM | COLO 205 11.3 µM | HCT-116 3.77 µM | NCI-H226 7.35 µM
active: MDA-MB-435 0.8 µM | M14 0.893 µM | M19-MEL 0.518 µM | UACC-62 1.08 µM | SK-MEL-5 0.834 µM
3.46 µM: HCT-15

CN(C(=O)C12C3C4C5C3C1(C(=O)C13C6C7C8C6C1C8C73)C5C42)C(C)(C)C (stereo not drawn)
> 21.3 µM: HCT-15
inactive: NCI-H522 > 32.4 µM | A549 > 30.1 µM | KM12 > 50 µM | SF-539 > 50 µM | 786-0 > 50 µM | ACHN > 50 µM | HT-29 > 37.8 µM | OVCAR-4 > 50 µM | M14 > 50 µM | XF498 > 50 µM | HL-60 > 19.3 µM | Malme-3M > 50 µM | SF-268 > 50 µM | DMS-273 > 21.4 µM | DLD-1 > 23.2 µM | OVCAR-8 > 50 µM | RPMI-8226 > 27.3 µM | SN12C > 50 µM | CCRF-CEM > 24 µM | UO-31 > 50 µM | CAKI-1 > 50 µM | MOLT-4 29.2 µM | SNB-19 > 50 µM | LXFL 529 > 50 µM | NCI-H460 > 32.7 µM | HCC 2998 > 50 µM | M19-MEL > 50 µM | HOP-18 > 50 µM | SNB-78 > 50 µM | SK-MEL-2 > 50 µM | SW-620 > 20.9 µM | SR > 50 µM | UACC-62 > 50 µM | SF-295 > 50 µM | A498 > 50 µM | TK-10 > 50 µM | UACC-257 > 50 µM | IGROV-1 > 50 µM | OVCAR-3 > 50 µM | LOX IMVI > 21 µM | K562 > 25.6 µM | SK-OV-3 > 50 µM | EKVX > 50 µM | NCI-H23 > 50 µM | HOP-92 > 50 µM | OVCAR-5 > 50 µM | SNB-75 > 33 µM | SK-MEL-28 > 50 µM | SK-MEL-5 > 50 µM | U-251 > 50 µM | KM-20L2 > 50 µM | RXF 393 > 50 µM | DMS-114 > 23.6 µM | HOP-62 > 50 µM | COLO 205 > 29.8 µM | HCT-116 9.55 µM | NCI-H226 > 50 µM
